Assay results published in US9169254B2, “Spiroimidazolone derivative” (Chugai Seiyaku Kabushiki Kaisha, priority 2009, dated 2015).
Structures can show the parent of a compound that is named as a salt.

The compounds below were run against T1, human PTH1 receptor (Homo sapiens, UniProt Q03431) (assay: In vitro cAMP signal activity in HKRK-B7 cells (LLC-PK1 cells overexpressing the human PTH1 receptor)). Conditions: HKRK-B7 cells; compound at 1×10^−3 M; […]; 0.1 µM.
T1 sequence (Q03431 27-593): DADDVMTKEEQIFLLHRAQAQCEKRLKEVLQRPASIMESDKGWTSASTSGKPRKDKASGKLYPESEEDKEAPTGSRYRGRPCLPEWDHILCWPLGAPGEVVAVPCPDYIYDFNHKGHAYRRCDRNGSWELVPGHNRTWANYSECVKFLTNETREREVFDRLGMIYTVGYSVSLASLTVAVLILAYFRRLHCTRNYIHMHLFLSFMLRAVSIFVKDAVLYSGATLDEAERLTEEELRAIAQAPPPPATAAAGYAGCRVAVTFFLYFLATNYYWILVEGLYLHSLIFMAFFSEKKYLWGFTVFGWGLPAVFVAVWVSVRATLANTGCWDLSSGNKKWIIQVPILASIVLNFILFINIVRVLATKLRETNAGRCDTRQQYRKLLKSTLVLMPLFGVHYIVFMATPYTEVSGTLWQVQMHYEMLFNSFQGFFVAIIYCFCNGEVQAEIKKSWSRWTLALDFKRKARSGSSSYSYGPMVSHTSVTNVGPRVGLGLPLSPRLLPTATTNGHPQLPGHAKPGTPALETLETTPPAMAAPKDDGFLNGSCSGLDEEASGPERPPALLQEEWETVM
Type: cell-based

Row | Compound | cAMP production activity (%)
1 | CNN(C)C(=O)c1cc(C)c(CCS(=O)(=O)N2CCC3(CC2)N=C(C2CCC(CCC(F)(F)F)CC2)NC3=O)c(C)c1 (stereo not drawn) [Compound 888, 3,5-Dimethyl-4-(2-{4-oxo-2-[4-(3,3,3-trifluoro-propyl)-cyclohexyl]-1,3,8-triaza-spiro[4.5]dec-1-ene-8-sulfonyl}-ethyl)-benzoic acid N,N′-dimethyl-hydrazide] | 86

Same assay, conditions: HKRK-B7 cells; compound at 1×10^−3 M; cAMP produced as percentage of that produced by hPTH(1-34) at 100 nM

Row | Compound | cAMP production activity (%)
2 | O=C1NC(C2CCCCC2)=NC12CCN(S(=O)(=O)CCc1ccc3c(ccn3C[C@H](O)CO)c1)CC2 [Compound 872, 2-cyclohexyl-8-{2-[1-((S)-2,3-dihydroxy-propyl)-1H-indol-5-yl]-ethanesulfonyl}-1,3,8-triaza-spiro[4.5]dec-1-en-4-one] | 109
3 | CC(=O)N(CCO)c1cc(C)c(CCS(=O)(=O)N2CCC3(CC2)N=C(c2cccc(OC(F)(F)F)c2)NC3=O)cc1F [Compound 873, N-(2-fluoro-5-methyl-4-{2-[4-oxo-2-(3-trifluoromethoxy-phenyl)-1,3,8-triaza-spiro[4.5]dec-1-ene-8-sulfonyl]-ethyl}-phenyl)-N-(2-hydroxy-ethyl)-acetamide] | 77
4 | Cc1cc(NS(N)(=O)=O)ccc1CCS(=O)(=O)N1CCC2(CC1)N=C(c1cccc(OC(F)(F)F)c1)NC2=O [Compound 874, N-(3-methyl-4-{2-[4-oxo-2-(3-trifluoromethoxy-phenyl)-1,3,8-triaza-spiro[4.5]dec-1-ene-8-sulfonyl]-ethyl}-phenyl)-sulfamide] | 61
5 | Cc1cc(NS(=O)(=O)NCCCO)ccc1CCS(=O)(=O)N1CCC2(CC1)N=C(c1cccc(OC(F)(F)F)c1)NC2=O [Compound 875, N-(3-hydroxy-propyl)-N′-(3-methyl-4-{2-[4-oxo-2-(3-trifluoromethoxy-phenyl)-1,3,8-triaza-spiro[4.5]dec-1-ene-8-sulfonyl]-ethyl}-phenyl)-sulfamide] | 65
6 | Cc1cc(N(CC#N)C(N)=O)ccc1CCS(=O)(=O)N1CCC2(CC1)N=C(c1cccc(OC(F)(F)F)c1)NC2=O [Compound 876, 1-cyanomethyl-1-(3-methyl-4-{2-[4-oxo-2-(3-trifluoromethoxy-phenyl)-1,3,8-triaza-spiro[4.5]dec-1-ene-8-sulfonyl]-ethyl}-phenyl)-urea] | 22
7 | Cc1cc(N(CC(F)(F)F)C(N)=O)ccc1CCS(=O)(=O)N1CCC2(CC1)N=C(c1cccc(OC(F)(F)F)c1)NC2=O [Compound 877, 1-(3-methyl-4-{2-[4-oxo-2-(3-trifluoromethoxy-phenyl)-1,3,8-triaza-spiro[4.5]dec-1-ene-8-sulfonyl]-ethyl}-phenyl)-1-(2,2,2-trifluoro-ethyl)-urea] | 35
8 | CC[C@H]1CC[C@H](C2=NC3(CCN(S(=O)(=O)CCc4ccc(N5CC(=O)NC5=O)cc4C)CC3)C(=O)N2)CC1 [Compound 878, 1-(4-{2-[2-(4-ethyl-cyclohexyl)-4-oxo-1,3,8-triaza-spiro[4.5]dec-1-ene-8-sulfonyl]-ethyl}-3-methyl-phenyl)-imidazolidine-2,4-dione] | 25
9 | CC[C@H]1CC[C@H](C2=NC3(CCN(S(=O)(=O)CCc4ccc(N5C(=O)NC(=O)C5C)cc4C)CC3)C(=O)N2)CC1 (stereo partly drawn) [Compound 879, 1-(4-{2-[2-(4-ethyl-cyclohexyl)-4-oxo-1,3,8-triaza-spiro[4.5]dec-1-ene-8-sulfonyl]-ethyl}-3-methyl-phenyl)-5-methyl-imidazolidine-2,4-dione] | 70
10 | CCCCC1CCC(C2=NC3(CCN(S(=O)(=O)CCc4ccc(N5C(=O)CNC5=O)cc4C)CC3)C(=O)N2)CC1 (stereo not drawn) [Compound 880, 3-(4-{2-[2-(4-Butyl-cyclohexyl)-4-oxo-1,3,8-triaza-spiro[4.5]dec-1-ene-8-sulfonyl]-ethyl}-3-methyl-phenyl)-imidazolidine-2,4-dione] | 68
11 | Cc1cc(N2C(=O)CNC2=O)ccc1CCS(=O)(=O)N1CCC2(CC1)N=C(C1CCC(C)CC1)NC2=O (stereo not drawn) [Compound 881, 3-(3-methyl-4-{2-[2-(4-methyl-cyclohexyl)-4-oxo-1,3,8-triaza-spiro[4.5]dec-1-ene-8-sulfonyl]-ethyl}-phenyl)-imidazolidine-2,4-dione] | 48
12 | Cc1cc(N2C(=O)CNC2=O)ccc1CCS(=O)(=O)N1CCC2(CC1)N=C(C1CCC(C(C)C)CC1)NC2=O (stereo not drawn) [Compound 882, 3-(4-{2-[2-(4-isopropyl-cyclohexyl)-4-oxo-1,3,8-triaza-spiro[4.5]dec-1-ene-8-sulfonyl]-ethyl}-3-methyl-phenyl)-imidazolidine-2,4-dione] | 70
13 | Cc1cc(N2C(=O)CNC2=O)cc(C)c1CCS(=O)(=O)N1CCC2(CC1)N=C(C1CCC(C)CC1)NC2=O (stereo not drawn) [Compound 883, 3-(3,5-dimethyl-4-{2-[2-(4-methyl-cyclohexyl)-4-oxo-1,3,8-triaza-spiro[4.5]dec-1-ene-8-sulfonyl]-ethyl}-phenyl)-imidazolidine-2,4-dione] | 56
14 | Cc1cc(N2C(=O)CNC2=O)cc(C)c1CCS(=O)(=O)N1CCC2(CC1)N=C(C1CCC(C(C)C)CC1)NC2=O (stereo not drawn) [Compound 884, 3-(4-{2-[2-(4-isopropyl-cyclohexyl)-4-oxo-1,3,8-triaza-spiro[4.5]dec-1-ene-8-sulfonyl]-ethyl}-3,5-dimethyl-phenyl)-imidazolidine-2,4-dione] | 59
15 | Cc1cc(N2C(=O)N(C)C(C)(C)C2=O)cc(C)c1CCS(=O)(=O)N1CCC2(CC1)N=C(C1CCC(C)CC1)NC2=O (stereo not drawn) [Compound 885, 3-(3,5-dimethyl-4-{2-[2-(4-methyl-cyclohexyl)-4-oxo-1,3,8-triaza-spiro[4.5]dec-1-ene-8-sulfonyl]-ethyl}-phenyl)-1,5,5-trimethyl-imidazolidine-2,4-dione] | 58
16 | Cc1cc(NC(=O)[C@@H](N)CO)ccc1CCS(=O)(=O)N1CCC2(CC1)N=C(c1cccc(C(F)(F)F)c1)NC2=O [Compound 886, (S)-2-amino-3-hydroxy-N-(3-methyl-4-{2-[4-oxo-2-(3-trifluoromethyl-phenyl)-1,3,8-triaza-spiro[4.5]dec-1-ene-8-sulfonyl]-ethyl}-phenyl)-propionamide] | 68
17 | CC[C@H]1CC[C@H](C2=NC3(CCN(S(=O)(=O)CCc4ccc(N5C(=O)NC(=O)C5(C)C)cc4C)CC3)C(=O)N2)CC1 [Compound 887, 1-(4-{2-[2-(4-ethyl-cyclohexyl)-4-oxo-1,3,8-triaza-spiro[4.5]dec-1-ene-8-sulfonyl]-ethyl}-3-methyl-phenyl)-5,5-dimethyl-imidazolidine-2,4-dione] | 58
18 | Cc1cc(OC2CCNCC2)ccc1CCS(=O)(=O)N1CCC2(CC1)N=C(c1cccc(OC(F)(F)F)c1)NC2=O [Compound 889, 8-{2-[2-Methyl-4-(piperidin-4-yloxy)-phenyl]-ethanesulfonyl}-2-(3-trifluoromethoxy-phenyl)-1,3,8-triaza-spiro[4.5]dec-1-en-4-one hydrochloride] | 26
19 | Cc1cc(C(=O)N(C)C)ccc1CCS(=O)(=O)N1CCC2(CC1)N=C(C1CCC(F)(F)CC1)NC2=O [Compound 890, 4-{2-[2-(4,4-Difluoro-cyclohexyl)-4-oxo-1,3,8-triaza-spiro[4.5]dec-1-ene-8-sulfonyl]-ethyl}-3,N,N-trimethyl-benzamide] | 61
20 | Cc1cc(C(=O)N(C)C)ccc1CCS(=O)(=O)N1CCC2(CC1)N=C(c1ccc(S(C)(=O)=O)cc1)NC2=O [Compound 891, 4-{2-[2-(4-methanesulfonyl-phenyl)-4-oxo-1,3,8-triaza-spiro[4.5]dec-1-ene-8-sulfonyl]-ethyl}-3,N,N-trimethyl-benzamide] | 8.6
21 | Cc1cc(C(=O)N(C)C)ccc1CCS(=O)(=O)N1CCC2(CC1)N=C(/C=C/c1cccc(C(F)(F)F)c1)NC2=O [Compound 892, 3,N,N-trimethyl-4-(2-{4-oxo-2-[(E)-2-(3-trifluoromethyl-phenyl)-vinyl]-1,3,8-triaza-spiro[4.5]dec-1-ene-8-sulfonyl}-ethyl)-benzamide] | 51
22 | Cc1cc(C(=O)N(C)C)ccc1CCS(=O)(=O)N1CCC2(CC1)N=C(C#Cc1ccccc1)NC2=O [Compound 893, 3,N,N-trimethyl-4-[2-(4-oxo-2-phenylethynyl-1,3,8-triaza-spiro[4.5]dec-1-ene-8-sulfonyl)-ethyl]-benzamide] | 14
23 | CCCCC1CCC(C2=NC3(CCN(S(=O)(=O)CCc4ccc(C(=O)N(C)C)cc4C)CC3)C(=O)N2)CC1 (stereo not drawn) [Compound 894, 4-{2-[2-(4-butyl-cyclohexyl)-4-oxo-1,3,8-triaza-spiro[4.5]dec-1-ene-8-sulfonyl]-ethyl}-3,N,N-trimethyl-benzamide] | 85
24 | Cc1cc(C(=O)N(C)C)ccc1CCS(=O)(=O)N1CCC2(CC1)N=C(C1CCC(C(C)(C)C)CC1)NC2=O (stereo not drawn) [Compound 895, 4-{2-[2-(4-tert-butyl-cyclohexyl)-4-oxo-1,3,8-triaza-spiro[4.5]dec-1-ene-8-sulfonyl]-ethyl}-3,N,N-trimethyl-benzamide] | 90
